Molecular target: T1, human CA-II (Homo sapiens, UniProt P00918)
T1 construct: purchased Sigma-Aldrich C6165
Assay: Carbonic Anhydrase-II (CA-II) Fluorescence Polarization Tight Binding Assay-Kd Determination
Conditions: inhibitor concentration 2.5 nM
Experimental: Assays were conducted in a final volume of 100 μL in 50 mM Tris/HCl (pH 7.6), 100 mM Na2SO4 and 0.005% Tween-20 in a 96-well black assay plate. […] The assay plate was
The Kd binding was calculated using GraphPad Prism and Morrison tight binding ligand equation.

Row | inhibition at 0.0025 µM | SMILES
1 | 49% | COC1COCCN(Cc2nc(Cc3ccccc3)n(-c3ccc(S(N)(=O)=O)cc3F)n2)C1 (centres unmarked) [Example T-40, 4-{5-benzyl-3-[(6-methoxy-14-oxazepan-4-yl)methyl]-1H-124-triazol-1-yl}-3-fluorobenzenesulfonamide]
2 | 58% | C[C@@H]1COCCN1Cc1nc(Cc2ccccc2)n(-c2ccc(S(N)(=O)=O)cc2F)n1 [Example T-41, 4-(5-benzyl-3-{[(3R)-3-methylmorpholin-4-yl]methyl}-1H-124-triazol-1-yl)-3-fluorobenzenesulfonamide]
3 | 42% | CCCN(C)Cc1nc(Cc2ccccc2)n(-c2ccc(S(N)(=O)=O)cc2F)n1 [Example T-42, 4-(5-benzyl-3-{[methyl(propyl)amino]methyl}-1H-124-triazol-1-yl)-3-fluorobenzenesulfonamide]
4 | 41% | C[C@@H](NCc1nc(Cc2ccccc2)n(-c2ccc(S(N)(=O)=O)cc2F)n1)[C@@H](O)c1ccccc1 [Example T-43, 4-[5-benzyl-3-({[(1R2S)-2-hydroxy-1-methyl-2-phenylethyl]amino}methyl)-1H-124-triazol-1-yl]-3-fluorobenzenesulfonamide]
5 | 49% | NS(=O)(=O)c1ccc(-n2nc(CN[C@H](CO)Cc3ccccc3)nc2Cc2ccccc2)c(F)c1 [Example T-44, 4-[5-benzyl-3-({[(1S)-1-benzyl-2-hydroxyethyl]amino}methyl)-1H-124-triazol-1-yl]-3-fluorobenzenesulfonamide]
6 | 53% | NS(=O)(=O)c1ccc(-n2nc(CNCC3(c4ccccc4)CC3)nc2Cc2ccccc2)c(F)c1 [Example T-45, 4-[5-benzyl-3-({[(1-phenylcyclopropyl)methyl]amino}methyl)-1H-124-triazol-1-yl]-3-fluorobenzenesulfonamide]
7 | 57% | NS(=O)(=O)c1ccc(-n2nc(CNC[C@@H](O)c3ccccc3)nc2Cc2ccccc2)c(F)c1 [Example T-46, 4-[5-benzyl-3-({[(2S)-2-hydroxy-2-phenylethyl]amino}methyl)-1H-124-triazol-1-yl]-3-fluorobenzenesulfonamide]
8 | 41% | COC[C@@H](NCc1nc(Cc2ccccc2)n(-c2ccc(S(N)(=O)=O)cc2F)n1)c1ccccc1 [Example T-47, 4-[5-benzyl-3-({[(1S)-2-methoxy-1-phenylethyl]amino}methyl)-1H-124-triazol-1-yl]-3-fluorobenzenesulfonamide]
9 | 50% | NS(=O)(=O)c1ccc(-n2nc(CNCCc3cccc(F)c3)nc2Cc2ccccc2)c(F)c1 [Example T-48, 4-[5-benzyl-3-({[2-(3-fluorophenyl)ethyl]amino}methyl)-1H-124-triazol-1-yl]-3-fluorobenzenesulfonamide]
10 | 49% | Cc1cc(CNCc2nc(Cc3ccccc3)n(-c3ccc(S(N)(=O)=O)cc3F)n2)ccc1F [Example T-49, 4-(5-benzyl-3-{[(4-fluoro-3-methylbenzyl)amino]methyl}-1H-124-triazol-1-yl)-3-fluorobenzenesulfonamide]
11 | 63% | C[C@H](NCc1nc(Cc2ccccc2)n(-c2ccc(S(N)(=O)=O)cc2F)n1)[C@H](O)c1ccccc1 [Example T-50, 4-[5-benzyl-3-({[(1S2R)-2-hydroxy-1-methyl-2-phenylethyl]amino}methyl)-1H-124-triazol-1-yl]-3-fluorobenzenesulfonamide]
12 | 39% | C[C@H](CNCc1nc(Cc2ccccc2)n(-c2ccc(S(N)(=O)=O)cc2F)n1)c1ccccc1 [Example T-52, 4-[5-benzyl-3-({[(2S)-2-phenylpropyl]amino}methyl)-1H-124-triazol-1-yl]-3-fluorobenzenesulfonamide]
13 | 75% | NS(=O)(=O)c1ccc(-n2nc(CN[C@H]3CCCC[C@H]3O)nc2Cc2ccccc2)c(F)c1 [Example T-53, 4-[5-benzyl-3-({[(1S2R)-2-hydroxycyclohexyl]amino}methyl)-1H-124-triazol-1-yl]-3-fluorobenzenesulfonamide]
14 | 38% | NS(=O)(=O)c1ccc(-n2nc(CNCCOc3ccccc3F)nc2Cc2ccccc2)c(F)c1 [Example T-54]
15 | 50% | NS(=O)(=O)c1ccc(-n2nc(CNCc3ccc(F)cc3)nc2Cc2ccccc2)c(F)c1 [Example T-56, 4-(5-benzyl-3-{[(4-fluorobenzyl)amino]methyl}-1H-124-triazol-1-yl)-3-fluorobenzenesulfonamide]
16 | 68% | NS(=O)(=O)c1ccc(-n2nc(CNC3CCCCCC3)nc2Cc2ccccc2)c(F)c1 [Example T-57, 4-(5-benzyl-3-[(cycloheptylamino)methyl]-1H-124-triazol-1-yl}-3-fluorobenzenesulfonamide]
17 | 51% | NS(=O)(=O)c1ccc(-n2nc(CNCCc3ccccc3F)nc2Cc2ccccc2)c(F)c1 [Example T-58, 4-[5-benzyl-3-({[2-(2-fluorophenyl)ethyl]amino}methyl)-1H-124-triazol-1-yl]-3-fluorobenzenesulfonamide]
18 | 53% | CC(C)CCNCc1nc(Cc2ccccc2)n(-c2ccc(S(N)(=O)=O)cc2F)n1 [Example T-59, 4-(5-benzyl-3-{[(3-methylbutyl)amino]methyl}-1H-124-triazol-1-yl)-3-fluorobenzenesulfonamide]

Row | inhibition at 0.0025 µM | SMILES
19 | 57% | NS(=O)(=O)c1ccc(-n2nc(CNCc3cc(F)ccc3F)nc2Cc2ccccc2)c(F)c1 [Example T-60, 4-(5-benzyl-3-{[(25-difluorobenzyl)amino]methyl}-1H-124-triazol-1-yl)-3-fluorobenzenesulfonamide]
20 | 40% | NS(=O)(=O)c1ccc(-n2nc(CNCCc3ccccc3)nc2Cc2ccccc2)c(F)c1 [Example T-61, 4-(5-benzyl-3-{[(2-phenylethyl)amino]methyl}-1H-124-triazol-1-yl)-3-fluorobenzenesulfonamide]
21 | 51% | COc1ccc(CCNCc2nc(Cc3ccccc3)n(-c3ccc(S(N)(=O)=O)cc3F)n2)cc1 [Example T-62, 4-[5-benzyl-3-({[2-(4-methoxyphenyl)ethyl]amino}methyl)-1H-124-triazol-1-yl]-3-fluorobenzenesulfonamide]
22 | 41% | CCOc1ccccc1CNCc1nc(Cc2ccccc2)n(-c2ccc(S(N)(=O)=O)cc2F)n1 [Example T-63, 4-(5-benzyl-3-{[(2-ethoxybenzyl)amino]methyl}-1H-124-triazol-1-yl)-3-fluorobenzenesulfonamide]
23 | 47% | NS(=O)(=O)c1ccc(-n2nc(CNCCOc3ccccc3)nc2Cc2ccccc2)c(F)c1 [Example T-64, 4-(5-benzyl-3-{[(2-phenoxyethyl)amino]methyl}-1H-124-triazol-1-yl)-3-fluorobenzenesulfonamide]
24 | 58% | C[C@@H](NCc1nc(Cc2ccccc2)n(-c2ccc(S(N)(=O)=O)cc2F)n1)c1ccccc1 [Example T-65]
25 | 52% | Cc1cccc(CCNCc2nc(Cc3ccccc3)n(-c3ccc(S(N)(=O)=O)cc3F)n2)c1 [Example T-66, 4-[5-benzyl-3-({[2-(3-methylphenyl)ethyl]amino}methyl)-1H-124-triazol-1-yl]-3-fluorobenzenesulfonamide]
26 | 47% | NS(=O)(=O)c1ccc(-n2nc(CN[C@@H]3C[C@H]4CC[C@@H]3C4)nc2Cc2ccccc2)c(F)c1 [Example T-67]
27 | 55% | Cc1ccn(CCNCc2nc(Cc3ccccc3)n(-c3ccc(S(N)(=O)=O)cc3F)n2)n1 [Example T-68, 4-[5-benzyl-3-({[2-(3-methyl-1H-pyrazol-1-yl)ethyl]amino}methyl)-1H-124-triazol-1-yl]-3-fluorobenzenesulfonamide]
28 | 68% | NS(=O)(=O)c1ccc(-n2nc(CNC3CCCCC3)nc2Cc2ccccc2)c(F)c1 [Example T-69, 4-{5-benzyl-3-[(cyclohexylamino)methyl]-1H-124-triazol-1-yl}-3-fluorobenzenesulfonamide]
29 | 89% | CCC(COC)NCc1nc(Cc2ccccc2)n(-c2ccc(S(N)(=O)=O)cc2F)n1 (centres unmarked) [Example T-70, 4-[5-benzyl-3-({[1-(methoxymethyl)propyl]amino}methyl)-1H-124-triazol-1-yl]-3-fluorobenzenesulfonamide]
30 | 47% | COC[C@H]1CCC[C@H]1NCc1nc(Cc2ccccc2)n(-c2ccc(S(N)(=O)=O)cc2F)n1 [Example T-71, 4-[5-benzyl-3-({[(1R2S)-2-(methoxymethyl)cyclopentyl]amino}methyl)-1H-124-triazol-1-yl]-3-fluorobenzenesulfonamide]
31 | 70% | CC(Cn1cccn1)NCc1nc(Cc2ccccc2)n(-c2ccc(S(N)(=O)=O)cc2F)n1 (centres unmarked) [Example T-72, 4-[5-benzyl-3-({[1-methyl-2-(1H-pyrazol-1-yl)ethyl]amino}methyl)-1H-124-triazol-1-yl]-3-fluorobenzenesulfonamide]
32 | 50% | COc1cccc(CCNCc2nc(Cc3ccccc3)n(-c3ccc(S(N)(=O)=O)cc3F)n2)c1 [Example T-73, 4-[5-benzyl-3-({[2-(3-methoxyphenyl)ethyl]amino}methyl)-1H-124-triazol-1-yl]-3-fluorobenzenesulfonamide]
33 | 45% | NS(=O)(=O)c1ccc(-n2nc(CNCc3ccccc3F)nc2Cc2ccccc2)c(F)c1 [Example T-74, 4-(5-benzyl-3-{[(2-fluorobenzyl)amino]methyl}-1H-124-triazol-1-yl)-3-fluorobenzenesulfonamide]
34 | 51% | CCC(NCc1nc(Cc2ccccc2)n(-c2ccc(S(N)(=O)=O)cc2F)n1)c1ccccc1 (centres unmarked) [Example T-75, 4-(5-benzyl-3-{[(1-phenylpropyl)amino]methyl}-1H-124-triazol-1-yl)-3-fluorobenzenesulfonamide]
35 | 41% | NS(=O)(=O)c1ccc(-n2nc(CNC3Cc4ccccc4C3)nc2Cc2ccccc2)c(F)c1 [Example T-76, 4-{5-benzyl-3-[(23-dihydro-1H-inden-2-ylamino)methyl]-1H-124-triazol-1-yl}-3-fluorobenzenesulfonamide]

Source: patent US20100256357A1, “HETEROCYCLES USEFUL AS INHIBITORS OF CARBONIC ANHYDRASE” (Agouron Pharmaceuticals, Inc., priority 2006, published 2010)
